US20060049177A1, “Induction heating cooker” (LG Electronics Inc., priority 2004, published 2006)
Where two headings read alike, the source gives them in different places.

Key:
[1] = cytotoxicity in mock-infected MT-4 cells (MTT); details: human, mock-infected MT-4 cells
Protocol: (§1) A rapid, sensitive and automated assay procedure was used for the in vitro evaluation of anti-HIV agents. An […] T4-cell line, MT-4, which was previously shown (Koyanagi et al., Int. J. Cancer, 36, 445-451, 1985) to be highly susceptible to and permissive for HIV infection, served as the target cell line. Inhibition of the HIV-induced cytopathic effect was used as the end point. The viability of both HIV- and mock-infected cells was assessed spectrophotometrically via the in situ reduction of 3-(4,5-dimethylthiazol-2-yl)-2,5-diphenyltetrazolium bromide (MTT). The 50% […], cytotoxic concentration (CC50 in μM) was defined as the concentration of compound that reduced the absorbance of the mock-infected control sample by 50%. The percent protection achieved by the compound in HIV-infected cells was calculated by the following formula: [formula]
(§2) whereby (ODT)HIV is the optical density measured with a given concentration of the test compound in HIV-infected cells; (ODC)HIV is the optical density measured for the control untreated HIV-infected cells; (ODC)MOCK is the optical density measured for the control untreated mock-infected cells; all optical density values were determined at 540 nm. The dose achieving 50% protection according to the above formula was defined as the 50% inhibitory concentration (IC50 in μM). The ratio of CC50 to IC50 was defined as the selectivity index (SI).

HIV-1 = assay: in vitro anti-HIV assay: inhibition of HIV-induced cytopathic effect in MT-4 cells (MTT); assay type: cell-based; details: for IC50: HIV-infected MT-4 cells, dose achieving 50% protection against cytopathic effect, MTT, OD 540 nm, mean value, read-out: IC50; for SI: selectivity index = ratio of CC50 to IC50
Protocol: as §1, §2

MT-4 cells = assay: cytotoxicity in mock-infected MT-4 cells (MTT)
Protocol: as §1, §2

[2] = Human immunodeficiency virus 1, MT4

In the case of CNc1nc(Cc2c(Cl)cccc2Cl)nc(Nc2ccc(C#N)cc2)n1 [Compound 7, 4-[[4-[(2,6-dichlorophenyl)methyl]-6-(methyl-amino)-1,3,5-triazin-2-yl]amino]benzonitrile], the CC50 [1] is reported as > 100000 nM, the IC50 (HIV-1; [2]) is reported as 10 nM and the SI (HIV-1) is reported as >14285. For the same compound, the melting point was 229 to 230 °C.

In the case of NC(=O)c1ccc(Nc2nc(N)nc(Cc3c(Cl)ccc4[nH]ccc34)n2)cc1 [Compound 9, 4-[[4-amino-6-[(5-chloro-1H-indol-4-yl)methyl]-1,3,5-triazin-2-yl]amino]benzamide], the IC50 (HIV-1; [2]) is reported as 66 nM, the SI (HIV-1) is reported as 830 and the melting point is reported as 204 to 205 °C.

In the case of CC(C)NC(=O)Nc1nc(Cc2c(Cl)cccc2Cl)nc(Nc2ccc(C#N)cc2)n1 [Compound 6, N-[4-[(4-cyano-phenyl)amino]-6-[(2,6-dichlorophenyl)methyl]-1,3,5-triazin-2-yl]-N′-(1-methylethyl)-urea], the IC50 (HIV-1; [2]) is reported as 380 nM, the SI (HIV-1) is reported as >263 and the melting point is reported as 267 to 268 °C.

Compound N#Cc1ccc(Nc2nc(Cc3c(Cl)cccc3Cl)nc(NCCCO)n2)cc1 [Compound 25] has a CC50 (MT-4 cells) of 51600 nM, an IC50 (HIV-1) of 29 nM and an SI (HIV-1) of 1773.

For N#Cc1ccc(Nc2nc(N)nc(Cc3cc(C(F)(F)F)ccc3C(F)(F)F)n2)cc1 [Compound 56], the CC50 (MT-4 cells) was > 100000 nM and the IC50 (HIV-1) was > 74400 nM.

N#Cc1ccc(Nc2nc(Cc3c(Cl)cccc3Cl)nc(NCCN)n2)cc1 [Compound 19] gave a CC50 (MT-4 cells) of 10400 nM, an IC50 (HIV-1) of 13 nM and an SI (HIV-1) of 810.

In the case of N#Cc1ccc(Nc2nc(Cc3c(Cl)cccc3Cl)nc(NCC(O)CO)n2)cc1 (stereo not drawn) [Compound 26, (O)-4-[[4-[(2,6-dichlorophenyl)methyl]-6-[(2,3-dihydroxypropyl)amino]-1,3,5-triazin-2-yl]amino]benzonitrile], the CC50 (MT-4 cells) is reported as 59700 nM, the IC50 (HIV-1) is reported as 68 nM and the SI (HIV-1) is reported as 883.

In the case of CC(=O)Nc1nc(Cc2c(Cl)cccc2Cl)nc(N(C(C)=O)c2ccc(C#N)cc2)n1 [Compound 40], the CC50 (MT-4 cells) is reported as > 100000 nM, the IC50 (HIV-1) is reported as 2 nM and the SI (HIV-1) is reported as >41666.

For N#Cc1ccc(Nc2nc(Cc3c(Cl)cccc3Cl)nc(NCCc3cccs3)n2)cc1 [Compound 35], the CC50 (MT-4 cells) was 53000 nM, the IC50 (HIV-1) was 700 nM and the SI (HIV-1) was 75.

For CONc1nc(Cc2c(Cl)cccc2Cl)nc(Nc2ccc(C#N)cc2)n1 [Compound 36], the CC50 (MT-4 cells) was 40900 nM, the IC50 (HIV-1) was 5 nM and the SI (HIV-1) was 8097.

In the case of N#Cc1ccc(Nc2nc(Cc3c(Cl)cccc3Cl)nc(NCCCN)n2)cc1 [Compound 30], the CC50 (MT-4 cells) is reported as 16500 nM, the IC50 (HIV-1) is reported as 40 nM and the SI (HIV-1) is reported as 416.

Work on N#Cc1ccc(Nc2nc(N)nc(Cc3ccccc3Cl)n2)cc1 [Compound 3] yielded a CC50 (MT-4 cells) of 51600 nM, an IC50 (HIV-1) of 13 nM and an SI (HIV-1) of 3972.
